Patent publication EP0004261A2, “Imidazole derivatives, method for their preparation and pharmaceutical compositions containing them” (F. HOFFMANN-LA ROCHE & CO. Aktiengesellschaft, priority 1978, dated 1979)

Test system: Bastardhunde
Assay: Coronary-dilating / haemodynamic effect in anaesthetised open-chest dogs (electromagnetic flowmeter, aortic catheter, tachograph)
Conditions: Dosis i.v. 1 mg/kg in Propylenglykol, n = 3
[1] = maximal effect in percent of baseline

2-Aethyl-N^5(oder N^4)-nitro-1-(2,3,5-tri-O-nitro-ß-D-ribofuranosyl)imidazol-4,5-dicarboxamid [mit R1 = CH3; R2 = H]
BP [min] (arterieller Blutdruck, Wirkungsdauer) (duration of effect): >60 min | CABF [min] (Coronarfluss, Wirkungsdauer) (duration of effect): >60 min | HR [min] (Herzfrequenz, Wirkungsdauer) (duration of effect): >60 min | PL [min] (Druckgradient, Wirkungsdauer) (duration of effect): 60 min | BP Δ % (arterieller Blutdruck) [1]: -32% | CABF Δ % (Coronarfluss) [1]: -19% | HR Δ % (Herzfrequenz) [1]: -6% | PL Δ % (Druckgradient, Aortadruck minus peripherem Coronardruck) [1]: -24%
